Source: PMC12154456, “Dual Mechanisms of the Diazepine-Benzimidazole Derivative, DAB-19, in Modulating Glutamatergic Neurotransmission” (International Journal of Molecular Sciences, 2025)

System: T1, voltage-gated sodium channels (native Nav channels, isoform not identified)
T1 construct: native channels in isolated hippocampal CA1 pyramidal neurons
Experiment: whole-cell patch clamp of TTX-sensitive sodium current, steps from -110 to -10 mV
Type: cell-based, Rattus norvegicus

CC(C)(C)c1ccc(CN2C3=NCCCCN3c3ccccc32)cc1 [DAB-19]
IC50: 8.3 ± 1.4 µM
